# Measurements as given in patent publication US8951752B2, “N-demethyase genes and uses thereof” (priority 2011, dated 2015).
# “And” between values parts separate entries of the source, which are not always exact repeats. Identical values can stand only once.
# How the values were obtained:
# [1] = target: His6-NdmD (Pseudomonas putida, UniProt H9N291); assay: N-demethylase activity of purified His6-NdmD alone; assay type: biochemical, Pseudomonas putida CBB5
# [2] = target: T1, N-demethylase (Ndm: NdmA and NdmB subunits) (Pseudomonas putida, UniProt H9N289+H9N290); assay: Methylxanthine N-demethylase activity assay with purified Ndm plus partially purified Ccr; assay type: biochemical, Pseudomonas putida CBB5; settings: for product formed from paraxanthine: 7.4 mU / 7.4 units of Ndm, 90 minutes; for Products identified: same products at 500 and 200 μM substrate; for Relative N-demethylase activity: relative to paraxanthine
# T1 construct: lane 3, natural Ndm purified from P. putida CBB5; made in house; host or cells: purified from the natural strain Pseudomonas putida CBB5 (DEAE, Phenyl and Q Sepharose); not recombinant
# T1 sequence (H9N289 1-351): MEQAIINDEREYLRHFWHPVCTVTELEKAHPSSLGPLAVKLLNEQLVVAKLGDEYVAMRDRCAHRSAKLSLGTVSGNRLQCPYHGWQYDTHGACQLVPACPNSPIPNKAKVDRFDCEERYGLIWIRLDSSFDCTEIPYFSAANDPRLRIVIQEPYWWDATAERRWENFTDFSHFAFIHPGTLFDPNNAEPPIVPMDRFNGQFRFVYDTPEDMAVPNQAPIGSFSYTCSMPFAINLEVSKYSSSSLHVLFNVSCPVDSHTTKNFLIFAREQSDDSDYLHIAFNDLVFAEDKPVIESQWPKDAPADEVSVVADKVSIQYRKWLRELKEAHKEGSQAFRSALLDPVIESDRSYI
# T1 sequence (H9N290 1-355): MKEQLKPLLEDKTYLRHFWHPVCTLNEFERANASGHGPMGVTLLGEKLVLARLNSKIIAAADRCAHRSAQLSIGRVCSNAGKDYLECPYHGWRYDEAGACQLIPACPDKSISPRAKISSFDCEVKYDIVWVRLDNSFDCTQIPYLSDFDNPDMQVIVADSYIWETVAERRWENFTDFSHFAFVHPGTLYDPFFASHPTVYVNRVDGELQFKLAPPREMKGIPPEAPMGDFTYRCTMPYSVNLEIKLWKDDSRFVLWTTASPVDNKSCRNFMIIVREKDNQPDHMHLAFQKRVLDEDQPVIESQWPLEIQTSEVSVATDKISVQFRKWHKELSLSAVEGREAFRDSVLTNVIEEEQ
# Procedure: Methylxanthine N-demethylase activity assay contained, in 1-mL total volume, 0.5 mM methylxanthine, 1 mM NADH, 50 μM Fe(NH4)2(SO4)2, and an appropriate amount of Ndm (0.08-7.5 mg protein, depending on purity of the protein) in 50 mM KPi buffer. Approximately 4 U of partially purified Ccr was added to reaction mixture when assaying Ndm in Phenyl Sepharose and Q Sepharose eluant-fractions (Ccr was not added to the enzyme reaction mixture when assaying Ndm activity in DEAE Sepharose eluant-fractions because Ccr co-eluted with Ndm). The reaction mixture was incubated at 30° C. with 300 rpm shaking on an incubating microplate shaker (VWR). Periodically, a small aliquot was sampled from the reaction mixture and mixed with equal volume of acetonitrile for quantifying concentrations of methylxanthines and N-demethylated products by HPLC. One unit of N-demethylase activity was defined as the consumption of one μmole methylxanthine per minute. When Ndm was coupled with the reductase and ferredoxin components of naphthalene dioxygenase of Pseudomonas sp. strain 9816 (Haigler & Gibson, 1990a; Haigler & Gibson, 1990b), 30 and 100 μg of the respective proteins were used. Spinach ferredoxin reductase and ferredoxin were also substituted for Ccr as described by Subramanian et al. (1979).
# Determination of Kinetic Parameters. Apparent kinetic parameters of Ndm were determined by measuring the initial rate of disappearance (vo) of paraxanthine or 7-methylxanthine in 50 mM KPi buffer (pH 7.5) at 30° C. The paraxanthine and 7-methylxanthine concentrations ([S]) used in these experiments were from 20 to 500 μM. Substrates were incubated with Ndm and Ccr under standard conditions for 15 minutes. At 1, 5, 10, and 15 minutes, samples were removed from the reaction mixtures to quantitate substrate concentrations by HPLC. Plots of substrate concentrations against time were used to determine the initial rates of disappearance of substrates which were linear over 15 minutes. The apparent kinetic parameters were determined from Michaelis-Menten plots of Vo against [S] fitted with the equation
# Determination of Oxygen Requirement. Oxygen consumption by Ndm during N-demethylation of paraxanthine was determined in a closed reaction vessel equipped with a Clarke-type oxygen electrode (Digitial Modell 0, Rank Brothers Ltd., Cambridge, England). The electrode was calibrated by using glucose oxidase (Sigma) and glucose for consumption of oxygen. Ndm activity assay was performed at 30° C. in a total volume of 1 ml of air-saturated 50 mM KPi buffer (pH 7.5) with 100 μM paraxanthine, 200 μM NADH, 50 μM Fe(NH4)2(SO4)2, 0.2 mg purified Ndm, and 4 U partially purified Ccr. The reaction was initiated by adding Ndm and partially purified Ccr after equilibration of all other reaction components for 3.3 minutes. After 13 minutes, a 100-μL aliquot was withdrawn from the reaction, immediately mixed with equal volume of acetonitrile to stop the enzyme reaction, and analyzed for N-demethylation product by HPLC. Background oxygen consumption, possibly due to NADH oxidase enzyme activity in the partially purified Ccr, was quantitated in control reactions containing all reaction components except paraxanthine.
# Formaldehyde Determination. […] Twenty μL Nash reagent was added to 50 μl Ndm reaction sample plus 50 μl acetonitrile. This mixture was incubated at 51° C. for 12 minutes.
# [3] = test system: recombinant E. coli cells that contain NdmABCD; assay: Conversion by recombinant E. coli cells without NdmE; assay type: cell-based; settings: absence of NdmE
# [4] = target: T2, NdmA-His6 (Pseudomonas putida, UniProt H9N289); assay: Methylxanthine N-demethylase assay and kinetics, NdmA-His6 with His6-NdmD; assay type: biochemical, Pseudomonas putida CBB5
# T2 construct: made in house; host or cells: E. coli BL21(DE3)
# T2 sequence (H9N289 1-351): T1 sequence (H9N289 1-351)
# Procedure: (§1) Methylxanthine N-demethylase activity assay contained, in 1-ml total volume, 0.5 mM methylxanthine, 1 mM NADH, 50 μM Fe(NH4)2(SO4)2, and an appropriate amount of NdmA-His6 or NdmB-His6 (7.4 μg-2.5 mg protein depending on substrate specificity) in 50 mM KPi buffer (pH 7.5). Approximately 4 U of partially purified reductase, prepared as described previously (Summers et al., 2011) or 59 U of purified His6-NdmD was added to reaction mixture. Catalase from bovine liver (4,000 U) was also added to reactions containing His6-NdmD. The reaction mixture was incubated at 30° C. with 300 rpm shaking on an incubating microplate shaker (VWR, Radnor, Pa.). Periodically, a small aliquot was sampled from the reaction mixture and mixed with equal volume of acetonitrile for quantifying concentrations of methylxanthines and N-demethylated products by HPLC. One unit of N-demethylase activity was defined as the consumption of one […] methylxanthine per minute.
# (§2) Apparent kinetic parameters of NdmA-His6 and NdmB-His6 were determined by measuring the initial rate of disappearance (vo) of methylxanthines in 50 mM KPi buffer (pH 7.5) at 30° C. The initial substrate concentrations (ESI) used in these experiments were from 25 to 500 μM. Substrates were incubated with His6-NdmD plus either NdmA-His6 or NdmB-His6 under standard conditions for 15 minutes. At 1, 5, 10, and 15 minutes, samples were removed from the reaction mixtures to quantitate substrate concentrations by HPLC. Plots of substrate concentrations against time were used to determine the initial rates of disappearance of substrates which were linear over 15 minutes. The apparent kinetic parameters were determined from Michaelis-Menten plots of vo against [S] fitted with the equation
# [5] = test system: NdmC
# [6] = test system: E. coli cells expressing NdmABCDE; assay: Conversion by recombinant E. coli cells with NdmE; assay type: cell-based
# [7] = target: T3, NdmB-His6 (Pseudomonas putida, UniProt H9N290); assay: Methylxanthine N-demethylase assay and kinetics, NdmB-His6 with His6-NdmD; assay type: biochemical, Pseudomonas putida CBB5
# T3 construct: made in house; host or cells: E. coli BL21(DE3)
# T3 sequence (H9N290 1-355): T1 sequence (H9N290 1-355)
# Procedure: as §1, §2
# [8] = test system: bacteria; settings: 0.1% concentration; cited from earlier work
# [9] = test system: cell extracts prepared from P. putida CBB5; assay: NADH-dependent N-demethylase activity of CBB5 cell extracts; assay type: biochemical, Pseudomonas putida CBB5; settings: 0.5 mM substrate, 7.2 mg mL^−1 protein
# [10] = test system: Pseudomonas putida CBB5; assay: Resting cell degradation of caffeine in coffee extract, black tea extract and buffer by CBB5; assay type: cell-based
# Sequence of His6-NdmD (H9N291 1-588 with tags or gaps): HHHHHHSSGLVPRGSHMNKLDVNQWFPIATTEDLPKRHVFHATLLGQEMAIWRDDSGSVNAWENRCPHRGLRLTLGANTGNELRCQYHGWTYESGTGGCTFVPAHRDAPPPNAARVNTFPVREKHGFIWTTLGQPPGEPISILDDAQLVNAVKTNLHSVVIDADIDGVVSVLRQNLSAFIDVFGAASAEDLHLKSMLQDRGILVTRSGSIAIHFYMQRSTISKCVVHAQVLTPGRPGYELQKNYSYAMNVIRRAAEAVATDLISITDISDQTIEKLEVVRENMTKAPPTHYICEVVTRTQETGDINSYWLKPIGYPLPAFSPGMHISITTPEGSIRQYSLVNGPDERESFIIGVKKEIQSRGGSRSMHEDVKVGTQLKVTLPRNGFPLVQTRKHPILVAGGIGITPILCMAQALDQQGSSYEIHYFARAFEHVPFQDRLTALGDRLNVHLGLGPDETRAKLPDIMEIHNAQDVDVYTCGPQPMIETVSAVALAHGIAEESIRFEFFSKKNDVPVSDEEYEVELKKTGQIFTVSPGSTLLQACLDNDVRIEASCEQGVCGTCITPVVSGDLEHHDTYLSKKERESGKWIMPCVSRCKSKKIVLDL
structure (smiles),measurement,setting,value
"Cn1cnc2[nH]c(=O)[nH]c(=O)c21 [7-Methylxanthine, 7-methylxanthine]",activity of purified His6-NdmD,[1],no activity
same,product formed from paraxanthine,[2],126.9 ± 6.40 µM
same,product formed from paraxanthine,[2]; listed as 7-methylxanthine,126.9 ± 6.4 µM
same,N-demethylation product present,"[2]; from paraxanthine, after 13 minutes",Approximately 39.9 μM
same,Products identified,[2],xanthine
same,Relative N-demethylase activity,[2]; substrate conc. 200 μM,664.2 ± 61.1
same,Relative N-demethylase activity,[2]; substrate conc. 500 μM,455.7 ± 17.6
same,conversion by cells,[3],remained untouched
same,N-demethylase activity,[4]; NdmA,inactive
same,Km,"[4]; NdmA-His6, 30° C., pH 7.5, ∞ where no activity",∞
same,N-demethylation by NdmC fraction,[5],sole substrate
same,conversion product,[6],xanthine
same,N-demethylase activity,[7]; NdmB,no activity
same,Km,"[7]; NdmB-His6, 30° C., pH 7.5, ∞ where no activity",∞
"Cn1c(=O)c2c(ncn2C)n(C)c1=O [Caffeine, 1,3,7-trimethylxanthine]",effect on protein synthesis in bacteria and yeast,[8],inhibits protein synthesis
same,degradation rate compared with paraxanthine,[9],significantly slower
same,Products identified,[2],"paraxanthine, and theobromine, and 7-methylxanthine, and xanthine"
same,Relative N-demethylase activity,[2]; substrate conc. 200 μM,48.2 ± 4.8
same,Relative N-demethylase activity,[2]; substrate conc. 500 μM,30.8 ± 1.7
same,conversion by cells,[3],"7-methylxanthine from caffeine, but not xanthine"
same,time for caffeine degradation,[10]; 18 mM (highest concentration) caffeine in buffer solution,2 h
same,time for caffeine degradation,[10]; 18 mM caffeine in coffee extract,6 h
same,time for caffeine degradation,[10]; diluted black tea extract (1 mM caffeine),≤ 0.667 h
same,time for caffeine disappearance,[10]; undiluted black tea extract (8 mM caffeine),40 min
same,Product,[4]; NdmA-His6,Theobromine
same,Product,"[4]; NdmA-His6, listed as caffeine",theobromine
same,N-demethylation by NdmC fraction,[5],not N-demethylated
same,conversion product,[6],xanthine
same,Product,[7]; NdmB-His6,Paraxanthine
